Legend:
Format in all cases: functional, cell-based
Conditions in all cases: Homo sapiens
HOP-92 = experiment: Compound was evaluated for cytotoxicity against non small lung cancer HOP-92 cell line
SK-OV-3 = experiment: Compound was evaluated for cytotoxicity against ovarian carcinoma […] cell line
SW-620 = experiment: Compound was evaluated for cytotoxicity against colon SW-620 cell line
MOLT-4 = experiment: Compound was evaluated for cytotoxicity against leukemic MOLT-4 cell lines
MCF7 = experiment: Compound was evaluated for cytotoxicity against breast cancer MCF-7 cell lines

Row | Compound | IC50 (HOP-92) [µM] | IC50 (SK-OV-3) [µM] | IC50 (SW-620) [µM] | IC50 (MOLT-4) [µM] | IC50 (MCF7) [µM]
1 | O=C(CCN1CCCCC1)Nc1ccc2sc3ccccc3c(=O)c2n1 | 0.41 | 23.2 | 8.31 | 2.56 | 15.9
2 | O=C(CCN1CCOCC1)Nc1ccc2sc3ccccc3c(=O)c2n1 | 45.3 | 47.6 | 27.3 |  | 49.8
3 | O=C(CN1CCCCC1)Nc1ccc2sc3ccccc3c(=O)c2n1 | 15.1 | 21.4 | 5.42 | 2.69 | 19.4
4 | O=C(CN1CCCC1)Nc1ccc2sc3ccccc3c(=O)c2n1 | 27.3 | 20.6 | 4.96 | 1.91 | 27.2
5 | CCN(CC)CCC(=O)Nc1ccc2sc3ccccc3c(=O)c2n1 |  | 20.5 | 12 | 7.77 | 13.3
6 | O=C(CCN1CCCC1)Nc1ccc2sc3ccccc3c(=O)c2n1 | 18.1 | 5.23 | 15.5 | 3.42 | 17

Source: ChEMBL document CHEMBL1129009, “New aza-thioxanthones: Synthesis and cytotoxicity” (Bioorg Med Chem Lett, 1996)
